Consider one compound from patent publication US8129410B2, “Benzisoxazole piperidine compounds and methods of use thereof” (Hypnion, Inc., priority 2005, dated 2012).

The test concerns adult, male Wistar rats. Description: Sleep-wakefulness monitoring (SCORE-2004, EEG/EMG) in rats after oral dosing at CT-18. The note with it: for LONGEST UNINTERRUPTED SLEEP BOUT: bout length defined in minutes; for MAXIMUM NREM SLEEP CUMULATION: cumulative nonREM defined in minutes, in min. Type of test: in vivo, rat. The protocol: Sleep-wakefulness, locomotor activity and body temperature are monitored in male Wistar rats treated with a test compound (i.e., benzisoxazole analog) initially at a concentration of 10 mg/kg. Higher and lower doses are assayed for select compounds (e.g., as high as 45 mg/kg, and as low as necessary to establish a no-effect dose). Treatments are administered at CT-18, the peak of the activity dominated period (6 hours after lights-off), and produced soporific (sleep-inducing) effects characterized by increased non-REM sleep time, increased sleep continuity, but without evidence of REM sleep inhibition or rebound insomnia.
Sleep-wakefulness, locomotor activity and body temperature were monitored in vivo with various compounds of the invention. Adult, male Wistar rats (250 g at time of surgery, Charles River Laboratories, Wilmington Mass.) were anesthetized (2% isoflourane in medical grade oxygen) and surgically prepared with a cranial implant to permit chronic electro-encephalogram (EEG) and electromyogram (EMG) recording. Body temperature and locomotor activity were monitored via a miniature transmitter (Mini-Mitter, Bend, Oreg.) surgically placed in the abdomen. The cranial implant consisted of stainless steel screws (two frontal [+3.2 AP from bregma, ±2.0 ML] and two occipital [−6.9 AP, ±5.5 ML]) for EEG recording. Two Teflon®-coated stainless steel wires were positioned under the nuchal trapezoid muscles for EMG recording. All leads were soldered to a miniature connector prior to surgery, and gas sterilized in ethylene oxide. The implant assembly was affixed to the skull with dental acrylic. A minimum of three weeks was allowed for surgical recovery.
Each rat was permanently housed in its own individual recording cage located within separate, ventilated compartments of custom-designed stainless steel cabinets. Each cage was enhanced with a filter-top riser and low-torque swivel-commutator. Food and water were available ad libitum. A 24-hr light-dark cycle (12 hours light, 12 hours dark) was maintained throughout the study. Animals were undisturbed for at least 48 hours before and after treatments.
Sleep and wakefulness were determined using “SCORE-2004™” (Hypnion, Worcester, Mass.)—an internet-based sleep-wake and physiological monitoring system. The system monitored amplified EEG (bandpass 1-30 Hz), integrated EMG (bandpass 10-100 Hz), body temperature and non-specific locomotor activity (LMA) via telemetry, and drinking activity, continuously and simultaneously. Arousal states were classified on-line as non-REM (NREM) sleep, REM sleep, wake, or theta-dominated wake every 10 seconds. Total drinking and locomotor activity counts, and body temperature were quantitiated and recorded each minute, using EEG feature extraction and pattern-matching algorithms. […] The classification algorithm used individually-taught EEG-arousal-state templates, plus EMG criteria to differentiate REM sleep from theta-dominated wakefulness, plus behavior-dependent contextual rules (e.g., if the animal was drinking, it is awake). Drinking and locomotor activity intensity (LMA) were recorded every 10 seconds, while body temperature was recorded each minute. Locomotor activity was detected by a telemetry receiver (Mini-Mitter) beneath the cage. Telemetry measures (LMA and body temperature) were not part of the scoring algorithm; thus, sleep-scoring and telemetry data were independent measures.
Compounds were administered at CT-18, the peak of the activity-dominated period, sufficient time was allowed to view the time course of the treatment effect before lights-on (6 hours post-treatment). Compounds were suspended in sterile 0.25% or 0.5% methylcellulose (1-2 ml/kg). Treatments were administered orally as a bolus.
A parallel group study design was employed. […]

As to `CC(C)(CN1CCC(c2noc3ccccc23)CC1)C(=O)O` [Compound 1], the “LONGEST UNINTERRUPTED SLEEP BOUT” value runs as follows: (0.3 mg/kg oral) 3.3 ± 1.8; (1 mg/kg oral) 17.2 ± 4.8; (3 mg/kg oral) 16.1 ± 2.3; (10 mg/kg oral) 15.2 ± 3.3. Also, the “MAXIMUM NREM SLEEP CUMULATION” value reads like this: (0.3 mg/kg oral) 13 ± 4; (1 mg/kg oral) 23 ± 6; (3 mg/kg oral) 21 ± 6; (10 mg/kg oral) 28 ± 5.
